# Measured values: patent US20190359653A1, “SELECTIVE PEPTIDE INHIBITORS OF FRIZZLED” (Genentech, Inc., priority 2016, published 2019)
# Where two headings read alike, the source gives them in different places.
# How the values were obtained:
# [1] = tested on: Wnt3a-mediated stabilization of β-catenin in mouse L cells; assay: in-cell western of β-catenin protein in L cells treated with Wnt3a; format: cell-based
# Description: DMSO controls were performed in parallel. Following treatment, the L-cells were fixed, permeabilized, probed with fluorescently labeled anti-β-catenin antibodies, and observed via in-cell western assay (i.e., as described in Hannoush, R. N. (2008) PLoS One 3, e3498) to assess β-catenin protein levels. The values in Table 7 are averages of at least 3 independent replicates, ±standard deviation.
# Herceptin = assay: spot phage ELISA against Herceptin (off-target); format: binding; conditions: for SIGNAL: NOISE RATIO HERCEPTIN: spot phage ELISA signal against Herceptin over ELISA signal against BSA, Tables 3 and 4; for HERCEPTIN S/W: signal minus noise (BSA); for HERCEPTIN S/W / HERCEPTIN S/N: Table 5; for HERCEPTIN S/N: signal to noise ratio
# Description: (§1) Phage pools of linear peptide libraries (Stanger, K. et al. Allosteric peptides bind a caspase zymogen and mediate caspase tetramerization. Nat Chem Biol 8, 655-660 (2012)) were cycled through rounds of binding selections with hFZD7 CRD-Fc following standard protocols (Tonikian et al. (2007) Nat Protoc 2, 1368-1386). Herceptin (10 μM) was included in sorting solution to block potential Fc binders during all rounds of sorting. After four rounds of binding selection, individual phage clones were analyzed in a high-throughput spot phage ELISA using plate-immobilized FZD7 CRD-Fc as target or off-target for specificity test (hFZD8 CRD-Fc and Herceptin). To measure off-target affinity, duplicate phage particle were assayed against BSA to measure non-specific binding. Clones with a phage-binding signal >0.5 and signal-to-noise ratio >10 were considered to be positive clones and were subjected to DNA sequence analysis. General data handling was done using Microsoft Excel 2010 unless otherwise noted.
# (§2) In order to investigate the role of FZD7 in intestinal stem cell function, experiments were performed to identify ligands that selectively bind FZD7 CRD. A naïve linear peptide library (4-16 amino acids in length) and a cyclic peptide library were screened via phage display against FZD7 CRD-Fc. Peptides found to bind FZD7 CRD-Fc were then screened via spot phage ELISA against FZD7 CRD-Fc, FZD8 CRD-Fc, and Herceptin to identify candidates that bind FZD7 CRD but not FZD8 CRD or herceptin. The amino acid sequences of candidate FZD7 CRD-binding linear peptides are shown in Table 3 below, and the amino acid sequences of candidate FZD7 CRD-binding cyclic peptides are shown in Table 4.
# (§3) Briefly, sixty Fz7-21-derived peptides (see Table 5), each containing at least one random alanine and/or valine/and/or aspartic acid and/or serine substitution, were generated and screened via spot phage ELISA (i.e., as described above) against FZD7 CRD-Fc and Herceptin.
# [2] = tested on: Wnt3a-mediated β-catenin signaling in HEK293-TB cells; format: cell-based; conditions: for HEK293S-TB % Remaining Activity: measured at 100 μM peptide; for IC50 compared with dFz7-21: text to Table 17
# FZD7 CRD-Fc = target: T1, FZD7 CRD-Fc (Homo sapiens, UniProt O75084); assay: spot phage ELISA against FZD7 CRD-Fc; format: binding; conditions: for FZD7 CRD-Fc phage-binding signal: signal minus noise (BSA); for FZD7 CRD-Fc phage-binding signal / FZD7 CRD-Fc S/N: shotgun scanning variants of Fz7-21, Table 5; for FZD7 CRD-Fc S/N: signal to noise ratio; for SIGNAL: NOISE RATIO FZD7 CRD: spot phage ELISA signal against FZD7 CRD over ELISA signal against BSA, Tables 3 and 4
# T1 construct: hFZD7 CRD-Fc (cat no. 6178-FZ); purchased R&D systems 6178-FZ
# Description: as §1, §2, §3
# FZD8 CRD-Fc = target: T2, FZD8 CRD-Fc (Homo sapiens, UniProt Q9H461); assay: spot phage ELISA against FZD8 CRD-Fc (off-target); format: binding; conditions: spot phage ELISA signal against FZD 8 CRD over ELISA signal against BSA; Tables 3 and 4
# T2 construct: hFZD8 CRD-Fc (cat no. 6129-FZ); purchased R&D systems 6129-FZ
# T2 sequence (Q9H461 30-151 limits assumed): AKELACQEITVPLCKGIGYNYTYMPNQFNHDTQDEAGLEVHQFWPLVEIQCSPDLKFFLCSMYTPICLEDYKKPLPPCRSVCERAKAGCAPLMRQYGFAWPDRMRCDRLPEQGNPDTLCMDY
# Description: as §1, §2
# [3] = tested on: Rnf43^−/− and Znf3^−/− intestinal neoplasia in mice; conditions: Koo et al. (2015); cited from earlier work
# [4] = β-catenin by immunofluorescence, Wnt3a 2.5 nM, 5 hours, mean ± standard deviation
# [5] = […], mWnt3a 50 ng/mL, 6 hours, mean ± standard deviation, read-out: HEK293S-TB IC50
compound,measurement,setting,value
FDFCSVMPQFIYCPGD [Fz7-20],L CELLS % Remaining Activity,[1]; measured at 100 μM peptide,23.68 ± 4.40%
same,IC50,[1]; [4],15.2 ± 10.8 µM
same,SIGNAL: NOISE RATIO HERCEPTIN,Herceptin,1.14
same,IC50,[2]; [5],20.8 ± 1.61 µM
same,HEK293S-TB % Remaining Activity,[2]; mean ± standard deviation,9.78 ± 0.53%
SDDXEFWCHVMY [dFz7-21Δ2.L6Hof],IC50 compared with dFz7-21,[2],comparable to that of dFz7-21
LPSDNLEFWCHVMY [Fz7-21N],L CELLS % Remaining Activity,[1]; measured at 11.11 μM of peptide,59.77^G ± 6.12%
same,Wnt3a-mediated stabilization of β-catenin,[1]; mouse L cells,blocked
same,IC50,[1]; [4],0.18 ± 0.12 µM
same,HEK293S-TB % Remaining Activity,[2]; mean ± standard deviation,5.51 ± 0.13%
same,IC50,"[2]; read-out: IC50, Wnt3a-stimulated β-catenin signaling",0.1 µM
41 (AASDDLEFWCHVMY) [compound 41],FZD7 CRD-Fc phage-binding signal,FZD7 CRD-Fc,3.0
same,FZD7 CRD-Fc S/N,FZD7 CRD-Fc,59.6
same,HERCEPTIN S/W,Herceptin,0.0
same,HERCEPTIN S/N,Herceptin,1.3
94 (LPADDLEFWCHVMY) [compound 94],FZD7 CRD-Fc phage-binding signal,FZD7 CRD-Fc,0.1
same,FZD7 CRD-Fc S/N,FZD7 CRD-Fc,2.8
same,HERCEPTIN S/W,Herceptin,0.0
same,HERCEPTIN S/N,Herceptin,1.2
ISLIEAMIALDRVF [Fz7-06],L CELLS % Remaining Activity,[1]; measured at 100 μM peptide,174.95%
same,L CELLS IC50 (μM),[1]; [4],n. i.
same,SIGNAL: NOISE RATIO HERCEPTIN,Herceptin,1.1
same,IC50,[2]; [5],10.5 ± 0.56 µM
same,HEK293S-TB % Remaining Activity,[2]; mean ± standard deviation,4.70 ± 2.07%
16 (PCSVICLPDWSSLLFI) [compound 16],SIGNAL: NOISE RATIO FZD7 CRD,FZD7 CRD-Fc,5.0
same,SIGNAL: NOISE RATIO HERCEPTIN,Herceptin,1.1
same,SIGNAL: NOISE RATIO FZD8 CRD,FZD8 CRD-Fc,1.1
YEHLHDLMDLIRPW [Fz7-07],L CELLS % Remaining Activity,[1]; measured at 100 μM peptide,67.20 ± 10.22%
same,IC50,[1]; [4],> 100 µM
same,SIGNAL: NOISE RATIO HERCEPTIN,Herceptin,1.2
same,IC50,[2]; [5],> 100 µM
same,HEK293S-TB % Remaining Activity,[2]; mean ± standard deviation,46.04 ± 6.94%
SDDLEFWCHVMY [dFz7-21-Δ2],effect of N-terminal truncation on dFz7-21 activity,[2]; lacking the 2 N-terminal residues,did not interfere
same,IC50 compared with dFz7-21,[2],comparable to that of dFz7-21
15 (FWMQLQDGFAIWFP) [compound 15],SIGNAL: NOISE RATIO HERCEPTIN,Herceptin,1.7
same,SIGNAL: NOISE RATIO FZD8 CRD,FZD8 CRD-Fc,2.9
IWFKGRFVEFSSLV [Fz7-17],L CELLS % Remaining Activity,[1]; measured at 100 μM peptide,38.20 ± 0.06%
same,IC50,[1]; [4],~35 µM
same,SIGNAL: NOISE RATIO HERCEPTIN,Herceptin,1.1
same,IC50,[2]; [5],34.77 ± 0.34 µM
same,HEK293S-TB % Remaining Activity,[2]; mean ± standard deviation,4.59 ± 1.30%
Cc1cc(-c2ccc(CC(=O)Nc3ccc(-c4cccnc4)cc3)cc2)ccn1 [C59],adverse effects on adjacent intestinal crypts,[3],no significant adverse effects
same,growth of intestinal neoplasia,[3],prevents the growth
32 (SSDFSGCLSWCDLIFG) [compound 32],SIGNAL: NOISE RATIO HERCEPTIN,Herceptin,1.22
61 (APADDLASWCHVMY) [compound 61],HERCEPTIN S/W,Herceptin,0.0
same,HERCEPTIN S/N,Herceptin,1.3
5 (PCSVICLPDWSSLLFI) [compound 5],SIGNAL: NOISE RATIO FZD7 CRD,FZD7 CRD-Fc,22.7
same,SIGNAL: NOISE RATIO HERCEPTIN,Herceptin,1.0
same,SIGNAL: NOISE RATIO FZD8 CRD,FZD8 CRD-Fc,1.5
81 (LASDDLEFWCHVMY) [compound 81],HERCEPTIN S/W,Herceptin,0.0
same,HERCEPTIN S/N,Herceptin,1.2
46 (APSDDLEFWCHAMY) [compound 46],HERCEPTIN S/W,Herceptin,0.0
same,HERCEPTIN S/N,Herceptin,1.3
39 (VAADDLAAWCHVMY) [compound 39],HERCEPTIN S/W,Herceptin,0.0
same,HERCEPTIN S/N,Herceptin,1.4
71 (APSDDLASWCHVMY) [compound 71],HERCEPTIN S/W,Herceptin,0.0
same,HERCEPTIN S/N,Herceptin,1.1
40 (AASDDLEFWCHVMY) [compound 40],FZD7 CRD-Fc phage-binding signal,FZD7 CRD-Fc,3.2
same,FZD7 CRD-Fc S/N,FZD7 CRD-Fc,60.5
same,HERCEPTIN S/W,Herceptin,0.0
same,HERCEPTIN S/N,Herceptin,1.4
4 (ACSYVIDLWNQCLT) [compound 4],SIGNAL: NOISE RATIO HERCEPTIN,Herceptin,1.1
66 (VPADALAVWCDVMY) [compound 66],HERCEPTIN S/W,Herceptin,0.0
same,HERCEPTIN S/N,Herceptin,1.3
85 (PPADDLAFWCDVMY) [compound 85],HERCEPTIN S/W,Herceptin,0.0
same,HERCEPTIN S/N,Herceptin,1.1
51 (APADDLAFWCHVMY) [compound 51],HERCEPTIN S/W,Herceptin,0.0
same,HERCEPTIN S/N,Herceptin,1.3
14 (DTDLLQWCLWFT) [compound 14],SIGNAL: NOISE RATIO HERCEPTIN,Herceptin,1.2
42 (APSDDVAFWCHVMY) [compound 42],HERCEPTIN S/W,Herceptin,0.0
same,HERCEPTIN S/N,Herceptin,1.6
